Measurements taken from patent US8536187B2 (Gilead Sciences, Inc., priority 2008, dated 2013).

Experiments:
[1] = test system: HCV replicon in human hepatoma Huh-7 cell line; test: Anti-HCV replicon assay, EC50 (luciferase luminescence); type: cell-based; details: Hepatitis C virus, Huh-7, 72 h
In short: (§1)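 Cytotoxicity (CC50) read by CellTiter-Glo luminescence after 10 min, and antiviral EC50 by luciferase signal after 30 min lysis with substrate, both at room temperature. Preceding step: 3-day exposure of 6000 Huh-7 HCV replicon cells per well to compound dilution series at 37° C, 5% CO2, in 0.5% DMSO.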

[2] = CC50 assay (CellTiter-Glo) in Huh-7 HCV replicon cells; type: cell-based; details: human
In short: as §1

CC(C)Oc1ccc(-c2ccc3nc(NCc4ccc(-n5cccn5)cc4)nc(NCC(F)(F)F)c3n2)cn1 [Example 242, N^2-(4-(1H-pyrazol-1-yl)benzyl)-6-(6-isopropoxypyridin-3-yl)-N^4-(2,2,2-trifluoroethyl)pyrido [3,2-d]pyrimidine-2,4-diamine]
EC50 [1]: < 0.1 µM
CC50 at 3 days ([2]; Table 2, 3 days incubation): 1 to 10 µM

FC(F)Oc1ccc(-c2ccc3nc(NCc4ccc(-n5cncn5)cc4)nc(NCC(F)(F)F)c3n2)cn1 [Example 245, N^2-(4-(1H-1,2,4-triazol-1-yl)benzyl)-6-(6-(difluoro-methoxy)pyridin-3-yl)-N^4-(2,2,2-trifluoroethyl)pyrido [3,2-d]pyrimidine-2,4-diamine]
EC50 [1]: < 0.1 µM
CC50 at 3 days ([2]; Table 2, 3 days incubation): > 10 µM

COc1ccc(-c2ccc3nc(NCc4cccc(C(F)(F)F)c4)nc(NC4(C(F)(F)F)CC4)c3n2)cc1S(C)(=O)=O [Example 113, N^2-(3-(trifluoromethyl)benzyl)-6-(4-methoxy-3-(methylsulfonyl)phenyl)-N^4-(1-(trifluoromethyl)cyclopropyl)pyrido[3,2-d] pyrimidine-2,4-diamine]
EC50 [1]: 0.1 to 0.25 µM
CC50 at 3 days ([2]; Table 2, 3 days incubation): > 10 µM

CCc1cc(S(N)(=O)=O)ccc1CNc1nc(NC2(C(F)(F)F)CC2)c2nc(-c3ccc(F)cc3)ccc2n1 [Example 68, 3-ethyl-4-((6-(4-fluorophenyl)-4-(1-(trifluoromethyl)cyclo-propylamino)pyrido[3,2-d]pyrimidin-2-ylamino)methyl) benzenesulfonamide]
EC50 [1]: 0.25 to 2 µM
CC50 at 3 days ([2]; Table 2, 3 days incubation): 1 to 10 µM

NS(=O)(=O)c1cc(Cl)cc(CNc2nc(NC3(C(F)(F)F)CC3)c3nc(-c4ccc(N5CNCC5=O)cc4)ccc3n2)c1 [Example 45, 3-chloro-5-((6-(4-(5-oxoimidazolidin-1-yl)phenyl)-4-(1-(trifluoromethyl)cyclopropylamino)pyrido [3,2-d]pyrimidin-2-ylamino)methyl)benzenesulfonamide]
EC50 [1]: < 0.1 µM
CC50 at 3 days ([2]; Table 2, 3 days incubation): 1 to 10 µM

COc1ccc(-c2ccc3nc(NCc4cccc(-n5cncn5)c4)nc(NC4(C(F)(F)F)CC4)c3n2)cc1S(C)(=O)=O [Example 39, N^2-(3-(1H-1,2,4-triazol-1-yl)benzyl)-6-(4-methoxy-3-(methylsulfonyl)phenyl)-N^4-(1-(trifluoromethyl)cyclopropyl) pyrido[3,2-d]pyrimidine-2,4-diamine]
EC50 [1]: < 0.1 µM
CC50 at 3 days ([2]; Table 2, 3 days incubation): > 10 µM

NS(=O)(=O)c1cc(CNc2nc(NC3(C(F)(F)F)CC3)c3nc(C#CC4CC4)ccc3n2)cc(C(F)(F)F)c1 [Example 106, 3-((6-(2-cyclopropylethynyl)-4-(1-(trifluoromethyl)cyclo-propylamino)pyrido[3,2-d]pyrimidin-2-ylamino)methyl)-5-(trifluoromethyl)benzene-sulfonamide]
EC50 [1]: < 0.1 µM
CC50 at 3 days ([2]; Table 2, 3 days incubation): > 10 µM

C[C@@H](Nc1nc(NCC(F)(F)F)c2nc(-c3cccc(S(C)(=O)=O)c3)ccc2n1)c1ccc(S(N)(=O)=O)cc1 [Example 17, (R)-4-{1-[6-(3-Methanesulfonyl-phenyl)-4-(2,2,2-trifluoro-ethylamino)-pyrido[3,2-d]pyrimidin-2-ylamino]-ethyl}-benzenesulfonamide]
EC50 [1]: < 0.1 µM
CC50 at 3 days ([2]; Table 1, 3 days incubation): 10 to 25 µM

FC(F)(F)CNc1nc(NCc2ccc(-n3cncn3)cc2)nc2ccc(-c3cnc(OC4CC4)nc3)nc12 [Example 253, N^2-(4-(1H-1,2,4-triazol-1-yl)benzyl)-6-(2-cyclopropoxy-pyrimidin-5-yl)-N^4-(2,2,2-trifluoroethyl)pyrido[3,2-d] pyrimidine-2,4-diamine]
EC50 [1]: < 0.1 µM
CC50 at 3 days ([2]; Table 2, 3 days incubation): > 10 µM

COc1ccc(-c2ccc3nc(NCc4cccc(-n5cncn5)c4)nc(NCC(F)(F)F)c3n2)cc1S(C)(=O)=O [Example 20]
EC50 [1]: < 0.1 µM
CC50 at 3 days ([2]; Table 1, 3 days incubation): > 25 µM

CS(=O)(=O)c1cccc(-c2ccc3nc(NCc4ccc(-n5cncn5)cc4)nc(NCC(F)(F)Cl)c3n2)c1 [Example 196, N^2-(4-(1H-1,2,4-triazol-1-yl)benzyl)-N^4-(2-chloro-2,2-difluoroethyl)-6-(3-(methylsulfonyl)phenyl)pyrido [3,2-d]pyrimidine-2,4-diamine]
EC50 [1]: < 0.1 µM
CC50 at 3 days ([2]; Table 2, 3 days incubation): > 10 µM

C[C@@H](Nc1nc(NC2(C(F)(F)F)CC2)c2nc(-c3cnc(NC4CC4)c(F)c3)ccc2n1)c1ccc(-n2cncn2)cc1 [Example 131, N^2-((R)-1-(4-(1H-1,2,4-triazol-1-yl)phenyl)ethyl)-6-(6-(cyclopropylamino)-5-fluoropyridin-3-yl)-N^4-(1-(trifluoromethyl)cyclopropyl) pyrido[3,2-d]pyrimidine-2,4-diamine]
EC50 [1]: 0.1 to 0.25 µM
CC50 at 3 days ([2]; Table 2, 3 days incubation): 1 to 10 µM

Fc1cc(-c2ccc3nc(NCc4ccc(-n5cncn5)cc4)nc(NC4(C(F)(F)F)CC4)c3n2)cnc1NC1CC1 [Example 65, N^2-(4-(1H-1,2,4-triazol-1-yl)benzyl)-6-(6-(cyclopropylamino)-5-fluoropyridin-3-yl)-N^4-(1-(trifluoromethyl)cyclopropyl) pyrido[3,2-d]pyrimidine-2,4-diamine]
EC50 [1]: < 0.1 µM
CC50 at 3 days ([2]; Table 2, 3 days incubation): 1 to 10 µM

C=Cc1ccc2nc(N[C@H](C)c3ccc(S(N)(=O)=O)cc3)nc(NCC(F)(F)F)c2n1 [Example 312, (R)-4-(1-(4-(2,2,2-trifluoro-ethylamino)-6-vinylpyrido [3,2-d]pyrimidin-2-ylamino)ethyl)benzenesulfonamide]
EC50 [1]: 0.1 to 0.25 µM
CC50 at 3 days ([2]; Table 2, 3 days incubation): > 10 µM

CS(=O)(=O)c1cc(-c2ccc3nc(NCc4ccc(S(N)(=O)=O)cc4)nc(NCC(F)(F)F)c3n2)ccc1OC(F)F [Example 164, 4-((6-(4-(difluoromethoxy)-3-(methylsulfonyl)phenyl)-4-(2,2,2-trifluoroethylamino)pyrido[3,2-d]pyrimidin-2-ylamino)methyl)benzene-sulfonamide]
EC50 [1]: < 0.1 µM
CC50 at 3 days ([2]; Table 2, 3 days incubation): > 10 µM

NS(=O)(=O)c1cc(CNc2nc(NC3(C(F)(F)F)CC3)c3nc(-c4ccc(F)cc4)ccc3n2)ccc1Cl [Example 88, 2-chloro-5-((6-(4-fluorophenyl)-4-(1-(trifluoromethyl)cyclopropyl-amino)pyrido[3,2-d]pyrimidin-2-ylamino)methyl)benzene-sulfonamide]
EC50 [1]: 0.1 to 0.25 µM
CC50 at 3 days ([2]; Table 2, 3 days incubation): > 10 µM

Cc1ccc(-c2ccc3nc(NCc4ccc(-n5cncn5)cc4)nc(NC4(C(F)(F)F)CC4)c3n2)cc1S(N)(=O)=O [Example 42, 5-(2-(4-(1H-1,2,4-triazol-1-yl)benzylamino)-4-(1-(trifluoromethyl)cyclopropyl-amino)pyrido[3,2-d]pyrimidin-6-yl)-2-methylbenzene-sulfonamide]
EC50 [1]: < 0.1 µM
CC50 at 3 days ([2]; Table 2, 3 days incubation): 1 to 10 µM

C#Cc1ccc2nc(N[C@H](C)c3ccc(S(N)(=O)=O)cc3)nc(O[C@@H]3C[C@@H]4C[C@@H]4C3)c2n1 [Example 314, 4-((R)-1-(4-((1S,3r,5R)-bicyclo[3.1.0]hexan-3-yloxy)-6-ethynylpyrido[3,2-d]pyrimidin-2-ylamino)ethyl) benzenesulfonamide]
EC50 [1]: < 0.1 µM
CC50 at 3 days ([2]; Table 2, 3 days incubation): > 10 µM

CCC(=O)NS(=O)(=O)c1ccc(CNc2nc(NCC(F)(F)F)c3nc(-c4ccc(OC)c(S(C)(=O)=O)c4)ccc3n2)cc1 [Example 142, N-(4-((6-(4-methoxy-3-(methylsulfonyl)phenyl)-4-(2,2,2-trifluoroethylamino)pyrido[3,2-d]pyrimidin-2-ylamino)methyl)phenylsulfonyl) propionamide]
EC50 [1]: 0.25 to 2 µM
CC50 at 3 days ([2]; Table 2, 3 days incubation): > 10 µM
